Test results reported in patent publication US6894046B2, “IL-5 inhibiting 6-azauracil derivatives” (Janssen Pharmaceutica N.V., priority 1998, dated 2005).

What follows are compounds tested on IL-5 production in human blood (assay: In vitro inhibition of IL-5 production in human blood (phytohemagglutinin-stimulated whole blood, ELISA)). Conditions: test dose 1×10^−6 M, phytohemagglutinin 2 μg/ml, 48 hours.
Format: cell-based

Compound | % inh. (percentage inhibition of IL-5 production) [%]
CC(C)(c1nc(-c2ccccc2)c(CCc2ccccc2)s1)c1c(Cl)cc(-n2ncc(=O)[nH]c2=O)cc1Cl [Compound 45] | 85
CC(C)(c1nc(-c2ccccc2)c(N2CCOCC2)s1)c1c(Cl)cc(-n2ncc(=O)[nH]c2=O)cc1Cl [Compound 14] | 78
Cc1sc(C(C)(C)c2c(Cl)cc(-n3ncc(=O)[nH]c3=O)cc2Cl)nc1-c1ccccc1 [Compound 10] | 85
Cc1ccccc1-c1nc(C(C)(C)c2c(Cl)cc(-n3ncc(=O)[nH]c3=O)cc2Cl)sc1-c1ccccc1 [Compound 38] | 93
CC(C)(c1nc(-c2ccc(Cl)s2)cs1)c1c(Cl)cc(-n2ncc(=O)[nH]c2=O)cc1Cl [Compound 73] | 84
CN(C)Cc1sc(C(C)(C)c2c(Cl)cc(-n3ncc(=O)[nH]c3=O)cc2Cl)nc1-c1ccccc1.Cl [Compound 2] | 92
CC(C)(c1nc(-c2cccs2)c(C(=O)O)s1)c1c(Cl)cc(-n2ncc(=O)[nH]c2=O)cc1Cl [Compound 120] | 8
CN1CCN(Cc2ccsc2-c2csc(C(C)(C)c3c(Cl)cc(-n4ncc(=O)[nH]c4=O)cc3Cl)n2)CC1.O [Compound 113] | 28
COCc1cccc(-c2nc(C(C)(C)c3c(Cl)cc(-n4ncc(=O)[nH]c4=O)cc3Cl)sc2C)c1 [Compound 44] | 81

Same assay, conditions: test dose 1×10^−6 M, phytohemagglutinin 2 μg/ml, 48 hours, read-out: % inh. (percentage inhibition of IL-5 production)

Compound | inhibition at 1 µM [%]
CC(C)(c1nc(-c2ccccc2)c(-c2ccccc2)s1)c1c(Cl)cc(-n2ncc(=O)[nH]c2=O)cc1Cl [Compound 23, 2-[3,5-dichloro-4-[1-(4,5-diphenyl-2-thiazolyl)-1-methylethyl]phenyl]-1,2,4-triazine-3,5(2H,4H)-dione] | 91
